Data as given in US7183238B2, “[1,2]-oxazine-3,5-diones” (Bayer CropScience AG, priority 2001, dated 2007).

Tests used:
Type in all cases: in vivo
[1] = system: greenhouse red spider mite (Tetranychus urticae); assay: Tetranychus test (OP-resistant/dip treatment); settings: 100 ppm active compound, OP-resistant, infested bean plants (Phaseolus vulgaris) dipped
Procedure: Tetranychus Test (OP-Resistant/dip Treatment)
• Solvent: 7 parts by weight of dimethylformamide • Emulsifier: 2 parts by weight of alkylaryl polyglycol ether
To produce a suitable preparation of active compound, 1 part by weight of active compound is mixed with the stated amounts of solvent and emulsifier, and the concentrate is diluted with emulsifier-containing water to the desired concentration.
Bean plants (Phaseolus vulgaris) which are heavily infested by all stages of the greenhouse red spider mite (Tetranychus urticae) are dipped into a preparation of active compound of the desired concentration.
After the desired period of time, the effect in % is determined. 100% means that all spider mites have been killed; 0% means that none of the spider mites has been killed.

[2] = system: caterpillars of the armyworm (Spodoptera frugiperda); assay: Spodoptera frugiperda test; settings: 500 ppm active compound, cabbage leaves (Brassica oleracea) dipped
Procedure: (§1) Spodoptera frugiperda Test • Solvent: 7 parts by weight of dimethylformamide • Emulsifier: 2 parts by weight of alkylaryl polyglycol ether To produce a suitable preparation of active compound, 1 part by weight of active compound is mixed with the stated amounts of solvent and emulsifier, and the concentrate is diluted with emulsifier-containing water to the desired concentration. Cabbage leaves (Brassica oleracea) are treated by being dipped into the preparation of active compound of the desired concentration and are populated with caterpillars of the armyworm (Spodoptera frugiperda) while the leaves are still moist. After the desired period of time, the kill in % is determined. 100% means that all caterpillars have been killed; 0% means that none of the caterpillars has been killed.

[3] = system: larvae of the mustard beetle (Phaedon cochleariae); assay: Phaedon larvae test; settings: 500 ppm active compound, cabbage leaves (Brassica oleracea) dipped
Procedure: as §1, with “Phaedon Larvae Test” for “Spodoptera frugiperda Test”, “of solvents” for “of solvent”, “with larvae” for “with caterpillars”, “the mustard beetle (Phaedon cochleariae)” for “the armyworm (Spodoptera frugiperda)”, “all beetle larvae” for “all caterpillars”, “the beetle larvae” for “the caterpillars”

Cc1ccc(-c2ccc(Cl)cc2)cc1C1=C(OC(=O)OCC(C)C)C(C)(C)ON(C)C1=O [Example I-c-1]
Kill rate in % after 7^d [1]: 98%
Kill rate in % after 7^d [2]: 100%
Kill rate in % after 7^d [3]: 100%
